Data reported in US20230183215A1, “Notch Inhibitors and Uses Thereof” (StemSynergy Therapeutics, Inc., priority 2020, published 2023).
Counter-ions that a name gives are not always drawn.

What was measured:
[1] = target: T1, Notch1 (Homo sapiens, UniProt P46531); assay: Notch1 Reporter Assay (CSL-responsive luciferase, doxycycline-induced Notch-ICD in 293A cells); assay type: cell-based; conditions: 25 ng/mL Dox, 24 h, luciferase normalized to cell viability
T1 construct: pLV[Tet]-Puro-TRE3G>Notch1-ICD; expressed in transfected cells; host or cells: 293A cells
T1 sequence (P46531 1754-2555 limits assumed): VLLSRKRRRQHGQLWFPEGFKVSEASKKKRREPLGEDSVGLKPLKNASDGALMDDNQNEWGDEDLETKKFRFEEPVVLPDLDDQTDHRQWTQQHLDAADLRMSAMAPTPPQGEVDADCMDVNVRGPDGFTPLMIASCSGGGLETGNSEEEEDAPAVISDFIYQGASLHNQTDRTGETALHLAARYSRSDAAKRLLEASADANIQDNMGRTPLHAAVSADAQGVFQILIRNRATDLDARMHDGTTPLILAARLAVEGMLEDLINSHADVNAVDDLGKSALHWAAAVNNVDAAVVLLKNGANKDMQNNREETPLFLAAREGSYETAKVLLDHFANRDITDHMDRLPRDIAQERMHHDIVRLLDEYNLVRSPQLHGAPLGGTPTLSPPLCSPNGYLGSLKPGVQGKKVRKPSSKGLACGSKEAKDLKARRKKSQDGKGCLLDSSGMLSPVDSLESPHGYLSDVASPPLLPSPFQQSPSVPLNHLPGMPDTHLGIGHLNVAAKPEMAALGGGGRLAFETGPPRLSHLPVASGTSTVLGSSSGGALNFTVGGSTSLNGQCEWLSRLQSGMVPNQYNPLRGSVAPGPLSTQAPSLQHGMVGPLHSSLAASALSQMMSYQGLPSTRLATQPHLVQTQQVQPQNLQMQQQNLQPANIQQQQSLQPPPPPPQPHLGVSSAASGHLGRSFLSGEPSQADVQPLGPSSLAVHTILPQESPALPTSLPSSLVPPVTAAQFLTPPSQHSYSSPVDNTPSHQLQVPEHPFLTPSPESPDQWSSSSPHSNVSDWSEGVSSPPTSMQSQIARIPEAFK
Procedure: 293A cells expressing 1) pCMV-Tet-On 3G, 2) pLV[Tet]-Puro-TRE3G>Notch1-ICD, 3) pLV[Tet]-Puro-TRE3G>Notch2-ICD, 4) pLV[Tet]-Puro-TRE3G>Notch3-ICD, and 5) pCSL-RElement-Luc were used. When Doxycycline is added, the Tet-ON gene activates expression of hNotch1ICD, which together with endogenous NTC components binds to CSL responsive elements (pCSL-RElement-Luc) and expresses luciferase. 1×10^4 cells are plated in 100 μL (96-well format). 24 h later, compounds (10 mM stock in DMSO) are diluted in DMSO to 200×, then added (5 ul into 1 mL) to cell culture media containing 50 ng/mL Dox. This is then added 1:1 to cells. Final DMSO=0.25%, Dox=25 ng/mL. After 24 h, media is discarded, and cells are lysed in passive lysis buffer (Promega). Cells are rocked at room temperature for 15 min and then lysate is divided for luciferase assay (Luciferase Assay System, Promega) and cell viability (CellTiter Glo 2.0, Promega). Raw luciferase is normalized to cell viability, and then scaled to DMSO wells. Results are analyzed and IC50's are determined in GraphPad by nonlinear regression curve fitting (4 parameter) of dose response curves.

[2] = system: OE33 Esophageal Adenocarcinoma cell line; assay: OE33 Colony Formation Assay; assay type: cell-based; conditions: Homo sapiens, 200 cells/well, compound every 48 hours for 7 days, CellTiter-Glo
Procedure: OE33 Colony Formation Assay:
The OE33 Esophageal Adenocarcinoma cell line was cultured and plated into 96-well tissue culture plates under sparse conditions (200 cells/well). Test compounds were serially diluted in DMSO and then into culture media (final DMSO concentration=0.1%). Compound/media was then added to cells every 48 hours for a total of 7 days. Clonogenic growth was assessed using the CellTiter-Glo reagent, according to manufacturer (Promega) specifications. Percent inhibition was calculated as the percent of luminescence normalized to control (0.1% DMSO) wells. Nonlinear regression curve fitting was performed using GraphPad Prism software to determine EC50's.

| Compound | EC50 [2] [µM] | IC50 [1] [µM] |
| --- | --- | --- |
| COc1cc(-c2cc(C(F)(F)F)cc3c2n(C)c(=O)n3CC(=O)N(C)c2cccc(Cl)c2)cc(F)c1OCc1nnc[nH]1 [compound 448, 2-(4-(4-((4H-1,2,4-triazol-3-yl)methoxy)-3-fluoro-5-methoxyphenyl)-3-methyl-2-oxo-6-(trifluoromethyl)-2,3-dihydro-1H-benzo[d]imidazol-1-yl)-N-(3-chlorophenyl)-N-methylacetamide hydrochloride] | 2.1 | 2.4 |
| COc1cc(-c2cc(C(F)(F)F)cc3c2n(C)c(=O)n3CC(=O)N(C)c2ccc(Cl)cc2)cc(F)c1OCc1nnc[nH]1 [compound 424, 2-(4-(4-((4H-1,2,4-triazol-3-yl)methoxy)-3-fluoro-5-methoxyphenyl)-3-methyl-2-oxo-6-(trifluoromethyl)-2,3-dihydro-1H-benzo[d]imidazol-1-yl)-N-(4-chlorophenyl)-N-methylacetamide hydrochloride] | 1.4 | 3.6 |
| COc1cc(-c2cc(C(F)(F)F)cc3c2n(C)c(=O)n3CC(=O)Nc2ccc(F)cc2)cc(F)c1OCc1nnc[nH]1 [compound 465, 2-(4-(4-((4H-1,2,4-triazol-3-yl)methoxy)-3-fluoro-5-methoxyphenyl)-3-methyl-2-oxo-6-(trifluoromethyl)-2,3-dihydro-1H-benzo[d]imidazol-1-yl)-N-(4-fluorophenyl)acetamide hydrochloride] | 5.2 | 8.6 |
| COc1cc(-c2cc(C(F)(F)F)cc3c2n(C)c(=O)n3CC(=O)N(C)c2ccc(C(F)(F)F)cc2)cc(F)c1OCc1nnc[nH]1 [compound 439, 2-(4-(4-((4H-1,2,4-triazol-3-yl)methoxy)-3-fluoro-5-methoxyphenyl)-3-methyl-2-oxo-6-(trifluoromethyl)-2,3-dihydro-1H-benzo[d]imidazol-1-yl)-N-methyl-N-(4-(trifluoromethyl)phenyl)acetamide hydrochloride] | 1.2 | 3.5 |
| COc1cc(-c2cc(C)cc3c2n(C)c(=O)n3CC(=O)Nc2ccc(F)cc2)cc(F)c1OCc1nnc[nH]1 [SSTN-606, 2-(4-(4-((4H-1,2,4-triazol-3-yl)methoxy)-3-fluoro-5-methoxyphenyl)-3,6-dimethyl-2-oxo-2,3-dihydro-1H-benzo[d]imidazol-1-yl)-N-(4-fluorophenyl)acetamide hydrochloride salt] |  | 15.3 |
| COc1cc(-c2cc(C(F)(F)F)cc3c2n(C)c(=O)n3CC(=O)N2CCN(C)CC2)cc(F)c1OCc1nnc[nH]1 [SSTN-544, 4-(4-((4H-1,2,4-triazol-3-yl)methoxy)-3-fluoro-5-methoxyphenyl)-3-methyl-1-(2-(4-methylpiperazin-1-yl)-2-oxoethyl)-6-(trifluoromethyl)-1,3-dihydro-2H-benzo[d]imidazol-2-one] |  | 51.1 |
| COc1cc(-c2cc(C(F)(F)F)cc3c2n(C)c(=O)n3CC(=O)Nc2cncc(C(F)(F)F)c2)cc(F)c1OCc1nnc[nH]1 [SSTN-614, 2-(4-(4-((4H-1,2,4-triazol-3-yl)methoxy)-3-fluoro-5-methoxyphenyl)-3-methyl-2-oxo-6-(trifluoromethyl)-2,3-dihydro-1H-benzo[d]imidazol-1-yl)-N-(5-(trifluoromethyl)pyridin-3-yl)acetamide] |  | 3.4 |
| COc1cc(-c2cc(F)cc3c2n(C)c(=O)n3CC(=O)N(C)c2ccc(Cl)cc2)cc(F)c1OCc1nc[nH]n1 [compound 384, 2-(4-(4-((1H-1,2,4-triazol-3-yl)methoxy)-3-fluoro-5-methoxyphenyl)-6-fluoro-3-methyl-2-oxo-2,3-dihydro-1H-benzo[d]imidazol-1-yl)-N-(4-chlorophenyl)-N-methylacetamide hydrochloride] |  | 14.2 |
| COc1cc(-c2cc(C(F)(F)F)cc3c2n(C)c(=O)n3CC(=O)Nc2cccc(S(C)(=O)=O)c2)cc(F)c1OCc1nnc[nH]1 [SSTN-501, 2-(4-(4-((4H-1,2,4-triazol-3-yl)methoxy)-3-fluoro-5-methoxyphenyl)-3-methyl-2-oxo-6-(trifluoromethyl)-2,3-dihydro-1H-benzo[d]imidazol-1-yl)-N-(3-(methylsulfonyl)phenyl)acetamide hydrochloride] |  | 13 |
| COc1cc(-c2cc(C(F)(F)F)cc3c2n(C)c(=O)n3CC(=O)Nc2cccc(C#N)c2)cc(F)c1OCc1nnc[nH]1 [SSTN-545, 2-(4-(4-((4H-1,2,4-triazol-3-yl)methoxy)-3-fluoro-5-methoxyphenyl)-3-methyl-2-oxo-6-(trifluoromethyl)-2,3-dihydro-1H-benzo[d]imidazol-1-yl)-N-(3-cyanophenyl)acetamide] |  | 5.8 |

Now from value to compound, other results behind:

| EC50 [2] [µM] | Compound | IC50 [1] [µM] |
| --- | --- | --- |
| 17.1 | COc1cc(-c2cc(C(F)(F)F)cc3c2n(C)c(=O)n3CC(=O)Nc2cccnc2F)cc(F)c1OCc1nnc[nH]1 [SSTN-612, 2-(4-(4-((4H-1,2,4-triazol-3-yl)methoxy)-3-fluoro-5-methoxyphenyl)-3-methyl-2-oxo-6-(trifluoromethyl)-2,3-dihydro-1H-benzo[d]imidazol-1-yl)-N-(2-fluoropyridin-3-yl)acetamide] | 13.2 |
| 1.7 | COc1cc(-c2cc(C(F)(F)F)cc3c2n(C)c(=O)n3CC(=O)Nc2cccc(C3CC3)c2)cc(F)c1OCc1nnc[nH]1 [SSTN-547, 2-(4-(4-((4H-1,2,4-triazol-3-yl)methoxy)-3-fluoro-5-methoxyphenyl)-3-methyl-2-oxo-6-(trifluoromethyl)-2,3-dihydro-1H-benzo[d]imidazol-1-yl)-N-(3-cyclopropylphenyl)acetamide] | 5.9 |
| 18.8 | COc1cc(-c2cc(C(F)(F)F)cc3c2n(C)c(=O)n3CC(=O)Nc2ccc(F)nc2)cc(F)c1OCc1nnc[nH]1 [SSTN-609, 2-(4-(4-((4H-1,2,4-triazol-3-yl)methoxy)-3-fluoro-5-methoxyphenyl)-3-methyl-2-oxo-6-(trifluoromethyl)-2,3-dihydro-1H-benzo[d]imidazol-1-yl)-N-(6-fluoropyridin-3-yl)acetamide] | 10.3 |
| 2.9 | COc1cc(-c2cc(C(F)(F)F)cc3c2n(C)c(=O)n3CC(=O)N(c2ccc(F)cc2)C2CC2)cc(F)c1OCc1nnc[nH]1 [SSTN-543, 2-(4-(4-((4H-1,2,4-triazol-3-yl)methoxy)-3-fluoro-5-methoxyphenyl)-3-methyl-2-oxo-6-(trifluoromethyl)-2,3-dihydro-1H-benzo[d]imidazol-1-yl)-N-cyclopropyl-N-(4-fluorophenyl)acetamide] | 4.7 |
| 1.5 | COc1cc(-c2cc(C(F)(F)F)cc3c2n(C)c(=O)n3CC(=O)Nc2cccc(C(F)(F)F)c2)cc(F)c1OCc1nnc[nH]1 [SSTN-495, 2-(4-(4-((4H-1,2,4-triazol-3-yl)methoxy)-3-fluoro-5-methoxyphenyl)-3-methyl-2-oxo-6-(trifluoromethyl)-2,3-dihydro-1H-benzo[d]imidazol-1-yl)-N-(3-(trifluoromethyl)phenyl)acetamide hydrochloride] | 4.3 |
| 2.3 | COCc1cccc(NC(=O)Cn2c(=O)n(C)c3c(-c4cc(F)c(OCc5nnc[nH]5)c(OC)c4)cc(C(F)(F)F)cc32)c1 [SSTN-548, 2-(4-(4-((4H-1,2,4-triazol-3-yl)methoxy)-3-fluoro-5-methoxyphenyl)-3-methyl-2-oxo-6-(trifluoromethyl)-2,3-dihydro-1H-benzo[d]imidazol-1-yl)-N-(3-(methoxymethyl)phenyl)acetamide] | 8.7 |
